By EC50 is commonly meant the midpoint of the concentration-response curve.

This passage reports EC50 results from patent US11786532B2, “2-pyridones and methods of use thereof” (ALIGOS THERAPEUTICS, INC., priority 2020, dated 2023).

Bounds are passed on as bounds.

For this experiment, the target named is T1, human thyroid receptor beta ligand-binding domain (THR-beta) (Homo sapiens, UniProt P10828).
T1 sequence (P10828 217-461 limits assumed): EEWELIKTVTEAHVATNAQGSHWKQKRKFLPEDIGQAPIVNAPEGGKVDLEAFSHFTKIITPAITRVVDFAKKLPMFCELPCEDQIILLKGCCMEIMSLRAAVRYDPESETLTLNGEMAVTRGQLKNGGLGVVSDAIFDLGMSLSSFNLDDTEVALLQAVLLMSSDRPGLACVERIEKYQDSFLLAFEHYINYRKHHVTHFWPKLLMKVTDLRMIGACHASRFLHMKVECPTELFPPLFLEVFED
The experiment in a line: THR Biochemical Assay (Assay 1): TR-FRET thyroid receptor beta coactivator assay. The settings on record: TR-FRET SRC2-2 coactivator recruitment, GST-tagged THR-beta LBD 1 nM, 1 hr at rt; read-out: Assay 1 (EC50, THR-beta agonist activity). From the text:
THR Biochemical Assay (Assay 1)
The TR-FRET thyroid receptor beta coactivator assay is to be used. The assay uses a terbium-labeled anti-GST antibody, a glutathione-S-transferase (GST) tagged human thyroid receptor, beta or alpha, ligand-binding domain (LBD), and a fluorescein labeled SRC2-2 coactivator peptide. The antibody interacts with the LBD, where the agonist will also bind, resulting in increased affinity for the SRC2-2 coactivator peptide causing energy transfer of the acceptor fluorophore and a FRET emission shift from 495 to 520 nm. The energy transfer is detected as an increase in the fluorescence emission of the fluorescein acceptor, and a decrease in the fluorescence emission of the terbium donor. The assay is to be performed in a 384-well black plate in a final volume of 20 μL. Serial dilution of various test agonists will be performed in DMSO (1% final DMSO concentration) and added to the test plate. Thyroid receptor beta LBD will usually be added to the plate at a final concentration of 1 nM, followed by the mixture of the fluorescein labeled SRC2-2 coactivator peptide, and the terbium-labeled anti-GST antibody at final concentrations of 200 nM and 2 nM respectively. The assay will often be incubated for 1 hr at rt protected from light. The TR-FRET will then be measured on a Victor multilabel reader (Perkin Elmer) using an excitation wavelength of 340 nm with emission filters of 495 nm and 520 nm. The assay will be quantified by expressing a ratio (520:495) of the intensities, and the resulting activation curves; EC50 values are to be generated using a sigmoidal dose response (variable slope) equation in GraphPad™ Prism 8.0.
For orientation: TR-FRET usually uses a lanthanide donor and a delayed reading to cut background.
Consider `Cc1c(Oc2c(Cl)cc(-n3nc(N)c(=O)[nH]c3=O)cc2Cl)c[nH]c(=O)c1C(C)C` [Example 18, 6-amino-2-(3,5-dichloro-4-((5-isopropyl-4-methyl-6-oxo-1,6-dihydropyridin-3-yl)oxy)phenyl)-1,2,4-triazine-3,5(2H,4H)-dione], for which the EC50 was below 50 nM. To `Nc1nn(-c2cc(Cl)c(Oc3ccc(=O)n(C4CC4)c3)c(Cl)c2)c(=O)[nH]c1=O` [Example 31, 6-amino-2-(3,5-dichloro-4-((1-cyclopropyl-6-oxo-1,6-dihydropyridin-3-yl)oxy)phenyl)-1,2,4-triazine-3,5(2H,4H)-dione] belongs 50 to 250 nM.

Consider `CC(C)n1cc(Oc2c(Cl)cc(-n3nc(N)c(=O)[nH]c3=O)cc2Cl)ccc1=O` [Compound 8, 6-amino-2-(3,5-dichloro-4-((1-isopropyl-6-oxo-1,6-dihydropyridin-3-yl)oxy)phenyl)-1,2,4-triazine-3,5(2H,4H)-dione], for which the EC50 was in the range of 50 to 250 nM. For `CC1CCc2c(Oc3c(Cl)cc(-n4nc(N)c(=O)[nH]c4=O)cc3Cl)ccc(=O)n21` (single isomer, unassigned) [Example 37, 6-amino-2-(3,5-dichloro-4-((3-methyl-5-oxo-1,2,3,5-tetrahydroindolizin-8-yl)oxy)phenyl)-1,2,4-triazine-3,5(2H,4H)-dione], the EC50 was below 50 nM. To `CC(C)c1cc(Oc2c(Cl)cc(-n3nc(N)c(=O)[nH]c3=O)cc2Cl)cn(C)c1=O` [Example 14, 6-amino-2-(3,5-dichloro-4-((5-isopropyl-1-methyl-6-oxo-1,6-dihydropyridin-3-yl)oxy)phenyl)-1,2,4-triazine-3,5(2H,4H)-dione] belongs below 50 nM; to `Nc1nn(-c2cc(Cl)c(Oc3c[nH]c(=O)c(C(=O)NC4CC(F)(F)C4)c3)c(Cl)c2)c(=O)[nH]c1=O` [Example 27, 5-(4-(6-Amino-3,5-dioxo-4,5-dihydro-1,2,4-triazin-2(3H)-yl)-2,6-dichlorophenoxy)-N-(3,3-difluorocyclobutyl)-2-oxo-1,2-dihydropyridine-3-carboxamide], 250 to 1000 nM. Consider `CC1CCc2c(Oc3c(Cl)cc(-n4nc(C#N)c(=O)[nH]c4=O)cc3Cl)ccc(=O)n21` (stereo not shown) [Example 35, 2-(3,5-dichloro-4-((3-methyl-5-oxo-1,2,3,5-tetrahydroindolizin-8-yl)oxy)phenyl)-3,5-dioxo-2,3,4,5-tetrahydro-1,2,4-triazine-6-carbonitrile], for which the EC50 is below 50 nM. To `CC(C)n1cc(Oc2c(Cl)cc(-n3nc(C#N)c(=O)[nH]c3=O)cc2Cl)ccc1=O` [Compound 7, 2-(3,5-dichloro-4-((1-isopropyl-6-oxo-1,6-dihydropyridin-3-yl)oxy)phenyl)-3,5-dioxo-2,3,4,5-tetrahydro-1,2,4-triazine-6-carbonitrile] belongs below 50 nM. Next, `CC(C)n1cc(Oc2c(Cl)cc(-n3nc(N)c(=O)[nH]c3=O)cc2Cl)cc(F)c1=O` [Example 22, 6-amino-2-(3,5-dichloro-4-((5-fluoro-1-isopropyl-6-oxo-1,6-dihydropyridin-3-yl)oxy)phenyl)-1,2,4-triazine-3,5(2H,4H)-dione]: 50 to 250 nM; `CC1CCc2c(Oc3c(Cl)cc(-n4nc(C#N)c(=O)[nH]c4=O)cc3Cl)c[nH]c(=O)c21` (stereo not shown) [Example 34, 2-(3,5-Dichloro-4-((7-methyl-1-oxo-2,5,6,7-tetrahydro-1H-cyclopenta[c]pyridin-4-yl)oxy)phenyl)-3,5-dioxo-2,3,4,5-tetrahydro-1,2,4-triazine-6-carbonitrile]: 250 to 1000 nM; `CC(C)c1cc(Oc2c(Cl)cc(-n3ncc(=O)[nH]c3=O)cc2Cl)c[nH]c1=O` [Compound 3, 2-(3,5-dichloro-4-((5-isopropyl-6-oxo-1,6-dihydropyridin-3-yl)oxy)phenyl)-1,2,4-triazine-3,5(2H,4H)-dione]: 50 to 250 nM.

Take `Nc1nn(-c2cc(Cl)c(Oc3c[nH]c(=O)c(C4CCC4)c3)c(Cl)c2)c(=O)[nH]c1=O` [Example 24, 6-amino-2-(3,5-dichloro-4-((5-cyclobutyl-6-oxo-1,6-dihydropyridin-3-yl)oxy)phenyl)-1,2,4-triazine-3,5(2H,4H)-dione]: the EC50 is below 50 nM. As to `CC1CCc2c(Oc3c(Cl)cc(-n4nc(N)c(=O)[nH]c4=O)cc3Cl)ccc(=O)n21` (stereo not shown) [Example 36, 6-amino-2-(3,5-dichloro-4-((3-methyl-5-oxo-1,2,3,5-tetrahydroindolizin-8-yl)oxy)phenyl)-1,2,4-triazine-3,5(2H,4H)-dione], the EC50 was below 50 nM.

As for `CC(C)c1cc(Oc2c(Cl)cc(-n3nc(N)c(=O)[nH]c3=O)cc2Cl)c[nH]c1=O` [Compound 1, 6-amino-2-(3,5-dichloro-4-((5-isopropyl-6-oxo-1,6-dihydropyridin-3-yl)oxy)phenyl)-1,2,4-triazine-3,5(2H,4H)-dione], the EC50 was below 50 nM. To `Nc1nn(-c2cc(Cl)c(Oc3ccc(=O)n(C4CCC4)c3)c(Cl)c2)c(=O)[nH]c1=O` [Example 30, 6-amino-2-(3,5-dichloro-4-((1-cyclobutyl-6-oxo-1,6-dihydropyridin-3-yl)oxy)phenyl)-1,2,4-triazine-3,5(2H,4H)-dione] belongs below 50 nM; to `CC(n1cc(Oc2c(Cl)cc(-n3nc(N)c(=O)[nH]c3=O)cc2Cl)ccc1=O)C(F)(F)F` (stereo not shown) [Example 32, 6-amino-2-(3,5-dichloro-4-((6-oxo-1-(1,1,1-trifluoropropan-2-yl)-1,6-dihydropyridin-3-yl)oxy)phenyl)-1,2,4-triazine-3,5(2H,4H)-dione], 50 to 250 nM; to `Cc1cc(-n2nc(N)c(=O)[nH]c2=O)cc(C)c1Cc1c[nH]c(=O)c(C(C)C)c1` [Example 33, 6-amino-2-(4-((5-isopropyl-6-oxo-1,6-dihydropyridin-3-yl)methyl)-3,5-dimethylphenyl)-1,2,4-triazine-3,5(2H,4H)-dione], 250 to 1000 nM. As to `Cc1cc(-n2nc(N)c(=O)[nH]c2=O)cc(C)c1Oc1c[nH]c(=O)c(C(C)C)c1` [Compound 9, 6-amino-2-(4-((5-isopropyl-6-oxo-1,6-dihydropyridin-3-yl)oxy)-3,5-dimethylphenyl)-1,2,4-triazine-3,5(2H,4H)-dione], the EC50 was in the range of 50 to 250 nM.

`CC(C)c1cc(Oc2c(Cl)cc(-c3nn(C)c(=O)[nH]c3=O)cc2Cl)c[nH]c1=O` [Compound 10, 6-(3,5-dichloro-4-((5-isopropyl-6-oxo-1,6-dihydropyridin-3-yl)oxy)phenyl)-2-methyl-1,2,4-triazine-3,5(2H,4H)-dione]: the EC50 lay in the range of 50 to 250 nM. Next, `CC(C)n1cc(Oc2c(Cl)cc(-n3nc(N)c(=O)[nH]c3=O)cc2Cl)cc(Cl)c1=O` [Example 23, 6-amino-2-(3,5-dichloro-4-((5-chloro-1-isopropyl-6-oxo-1,6-dihydropyridin-3-yl)oxy)phenyl)-1,2,4-triazine-3,5(2H,4H)-dione]: 50 to 250 nM; `Cc1cc(Oc2c(Cl)cc(-n3nc(N)c(=O)[nH]c3=O)cc2Cl)cn(C(C)C)c1=O` [Example 19, 6-amino-2-(3,5-dichloro-4-((1-isopropyl-5-methyl-6-oxo-1,6-dihydropyridin-3-yl)oxy)phenyl)-1,2,4-triazine-3,5(2H,4H)-dione]: below 50 nM; `CNC(=O)c1cc(Oc2c(Cl)cc(NC(=O)c3noc(=O)[nH]3)cc2Cl)c[nH]c1=O` [Example 28, N-(3,5-dichloro-4-((5-(methylcarbamoyl)-6-oxo-1,6-dihydropyridin-3-yl)oxy)phenyl)-5-oxo-4,5-dihydro-1,2,4-oxadiazole-3-carboxamide]: 1000 to 25000 nM. Next, `CC1CCc2c(Oc3c(Cl)cc(-n4nc(N)c(=O)[nH]c4=O)cc3Cl)ccc(=O)n21` (single isomer, unassigned) [Example 38, 6-amino-2-(3,5-dichloro-4-((3-methyl-5-oxo-1,2,3,5-tetrahydroindolizin-8-yl)oxy)phenyl)-1,2,4-triazine-3,5(2H,4H)-dione]: 50 to 250 nM; `CC(C)c1cc(Oc2c(Cl)cc(NC(=O)c3noc(=O)[nH]3)cc2Cl)c[nH]c1=O` [Compound 5, N-(3,5-dichloro-4-((5-isopropyl-6-oxo-1,6-dihydropyridin-3-yl)oxy)phenyl)-5-oxo-4,5-dihydro-1,2,4-oxadiazole-3-carboxamide]: below 50 nM; `CN(C)c1cc(Oc2c(Cl)cc(-n3nc(N)c(=O)[nH]c3=O)cc2Cl)c[nH]c1=O` [Compound 13, 6-amino-2-(3,5-dichloro-4-((5-(dimethylamino)-6-oxo-1,6-dihydropyridin-3-yl)oxy)phenyl)-1,2,4-triazine-3,5(2H,4H)-dione]: 250 to 1000 nM.
